# Laboratory results published in patent US9695133B2, “Quinazolinone-based oncogenic-RAS-selective lethal compounds and their use” (THE TRUSTEES OF COLUMBIA UNIVERSITY IN THE CITY OF NEW YORK, priority 2012, dated 2017).
# Tested on: HT-1080 cells
# Experiment: Metabolite profiling (LC-MS/MS) upon erastin treatment
# Type: cell-based, human
# Conditions: 5 μg/mL erastin 5 h
# Description: 2 million HT-1080 cells were seeded in 10 cm culture dishes. […] 4 mL of cold 80% methanol was added to the cell monolayer to extract polar metabolites using a cell scraper. The cell lysate/methanol mixture was transferred to a 15 mL tube and centrifuged at 2,000×g at 4° C. for 10 minutes to pellet debris and proteins. The supernatant was transferred to a new tube and stored at −80° C. for liquid chromatography-mass spectrometry/mass spectrometry (LC-MS/MS) analysis. For lipid extract preparation, 3 mL of cold 100% isopropanol was added to the cell monolayer to scrape out cells. The resulting cell lysate/isopropanol mixture was transferred to a new 15 mL tube and centrifuged at 2,000×g at 4° C. for 10 minutes. The cleared supernatant was transferred to a new tube and stored at −20° C. for LC-MS/MS analysis.
# The metabolite extract was subjected to LC-MS/MS analysis to determine the quantity of each metabolite in each sample.
compound,measurement,value
CCOc1ccccc1-n1c(C(C)N2CCN(C(=O)COc3ccc(Cl)cc3)CC2)nc2ccccc2c1=O (stereo not drawn) [erastin],G6P Erastin/DMSO,1.134
same,G6P log2 (Erastin/DMSO),0.181
same,GABA Erastin/DMSO,1.173
same,GABA log2 (Erastin/DMSO),0.2297
same,GDP Erastin/DMSO,0.8497
same,GDP log2 (Erastin/DMSO),−0.235
same,GMP Erastin/DMSO,1.066
same,GMP log2 (Erastin/DMSO),0.09204
same,IMP Erastin/DMSO,1.065
same,IMP log2 (Erastin/DMSO),0.09035
same,N-carbomoyl-beta-alanine Erastin/DMSO,0.7958
same,N-carbomoyl-beta-alanine log2 (Erastin/DMSO),−0.3296
same,NAD Erastin/DMSO,0.9157
same,NAD log2 (Erastin/DMSO),−0.127
same,NADH Erastin/DMSO,0.8051
same,NADH log2 (Erastin/DMSO),−0.3128
same,NMMA Erastin/DMSO,0.9886
same,NMMA log2 (Erastin/DMSO),−0.01661
same,OH-phenylpyruvate Erastin/DMSO,0.8442
same,OH-phenylpyruvate log2 (Erastin/DMSO),−0.2443
same,PEP Erastin/DMSO,1.147
same,PEP log2 (Erastin/DMSO),0.1975
same,SDMA Erastin/DMSO,0.9505
same,SDMA log2 (Erastin/DMSO),−0.07329
same,UDP Erastin/DMSO,1.002
same,UDP log2 (Erastin/DMSO),0.002894
same,UDP-galactose/UDP-glucose Erastin/DMSO,0.9003
same,UDP-galactose/UDP-glucose log2 (Erastin/DMSO),−0.1516
same,UDP-glucuronate Erastin/DMSO,0.9339
same,UDP-glucuronate log2 (Erastin/DMSO),−0.09865
same,UMP Erastin/DMSO,1.049
same,UMP log2 (Erastin/DMSO),0.06891
same,XMP Erastin/DMSO,0.8599
same,XMP log2 (Erastin/DMSO),−0.2178
same,acetylcholine Erastin/DMSO,0.8307
same,acetylcholine log2 (Erastin/DMSO),−0.2676
same,aconitate Erastin/DMSO,1.036
same,aconitate log2 (Erastin/DMSO),0.05158
same,adenine Erastin/DMSO,1.254
same,adenine log2 (Erastin/DMSO),0.3261
same,adenosine Erastin/DMSO,1.376
same,adenosine log2 (Erastin/DMSO),0.4605
same,adipate Erastin/DMSO,1.091
same,adipate log2 (Erastin/DMSO),0.1256
same,alanine Erastin/DMSO,1.061
same,alanine log2 (Erastin/DMSO),0.0857
same,allantoin Erastin/DMSO,0.9512
same,allantoin log2 (Erastin/DMSO),−0.07213
same,alpha-glycerophosphate Erastin/DMSO,0.7556
same,alpha-glycerophosphate log2 (Erastin/DMSO),−0.4043
same,alpha-glycerophosphocholine Erastin/DMSO,0.2194
same,alpha-glycerophosphocholine log2 (Erastin/DMSO),−2.188
same,alpha-ketoglutarate Erastin/DMSO,0.9867
same,alpha-ketoglutarate log2 (Erastin/DMSO),−0.01926
same,arginine Erastin/DMSO,0.9866
same,arginine log2 (Erastin/DMSO),−0.01943
same,ascorbate Erastin/DMSO,1.196
same,ascorbate log2 (Erastin/DMSO),0.2586
same,asparagine Erastin/DMSO,1.069
same,asparagine log2 (Erastin/DMSO),0.09662
same,aspartate Erastin/DMSO,1.017
same,aspartate log2 (Erastin/DMSO),0.02452
same,betaine Erastin/DMSO,0.9528
same,betaine log2 (Erastin/DMSO),−0.06976
same,cAMP Erastin/DMSO,1.266
same,cAMP log2 (Erastin/DMSO),0.3404
same,carnitine Erastin/DMSO,0.802
same,carnitine log2 (Erastin/DMSO),−0.3183
same,carnosine Erastin/DMSO,0.9657
same,carnosine log2 (Erastin/DMSO),−0.0503
same,choline Erastin/DMSO,0.8139
same,choline log2 (Erastin/DMSO),−0.2971
same,cis/trans hydroxyproline Erastin/DMSO,1.099
same,cis/trans hydroxyproline log2 (Erastin/DMSO),0.1366
same,citrate Erastin/DMSO,0.974
same,citrate log2 (Erastin/DMSO),−0.03805
same,citrulline Erastin/DMSO,1.036
same,citrulline log2 (Erastin/DMSO),0.05057
same,cotinine Erastin/DMSO,0.9037
same,cotinine log2 (Erastin/DMSO),−0.146
same,creatine Erastin/DMSO,0.8675
same,creatine log2 (Erastin/DMSO),−0.205
same,creatinine Erastin/DMSO,0.972
same,creatinine log2 (Erastin/DMSO),−0.04091
same,cystamine Erastin/DMSO,1.09
same,cystamine log2 (Erastin/DMSO),0.1248
same,cystathionine Erastin/DMSO,1.263
same,cystathionine log2 (Erastin/DMSO),0.3368
same,cytidine Erastin/DMSO,6.079
same,cytidine log2 (Erastin/DMSO),2.604
same,cytosine Erastin/DMSO,0.8863
same,cytosine log2 (Erastin/DMSO),−0.1741
same,dCMP Erastin/DMSO,0.9184
same,dCMP log2 (Erastin/DMSO),−0.1228
same,dGMP Erastin/DMSO,1.052
same,dGMP log2 (Erastin/DMSO),0.07275
same,dTMP Erastin/DMSO,0.6985
same,dTMP log2 (Erastin/DMSO),−0.5178
same,dUMP Erastin/DMSO,0.6787
same,dUMP log2 (Erastin/DMSO),−0.5592
same,dimethylglycine Erastin/DMSO,0.9338
same,dimethylglycine log2 (Erastin/DMSO),−0.09885
same,folate Erastin/DMSO,1.032
same,folate log2 (Erastin/DMSO),0.04552
same,fumarate Erastin/DMSO,0.9822
same,fumarate log2 (Erastin/DMSO),−0.02598
same,glucose Erastin/DMSO,0.9717
same,glucose log2 (Erastin/DMSO),−0.04147
same,glucose/fructose/galactose Erastin/DMSO,1.011
same,glucose/fructose/galactose log2 (Erastin/DMSO),0.01526
same,glucuronate Erastin/DMSO,0.61
same,glucuronate log2 (Erastin/DMSO),−0.7132
same,glutamate Erastin/DMSO,1.019
same,glutamate log2 (Erastin/DMSO),0.02762
same,glutamine Erastin/DMSO,1.015
same,glutamine log2 (Erastin/DMSO),0.02096
same,glutathione oxidized Erastin/DMSO,0.3235
same,glutathione oxidized log2 (Erastin/DMSO),−1.628
same,glutathione reduced Erastin/DMSO,0.007019
same,glutathione reduced log2 (Erastin/DMSO),−7.154
same,glyceraldehyde-3-phosphate Erastin/DMSO,1.192
same,glyceraldehyde-3-phosphate log2 (Erastin/DMSO),0.2529
same,glycerol Erastin/DMSO,1.058
same,glycerol log2 (Erastin/DMSO),0.08176
same,glycine Erastin/DMSO,0.9723
same,glycine log2 (Erastin/DMSO),−0.04055
same,glycochenodeoxycholate Erastin/DMSO,1.067
same,glycochenodeoxycholate log2 (Erastin/DMSO),0.09335
same,glycocholate Erastin/DMSO,0.9975
same,glycocholate log2 (Erastin/DMSO),−0.003654
same,glycodeoxycholate Erastin/DMSO,1.054
same,glycodeoxycholate log2 (Erastin/DMSO),0.07552
same,guanosine Erastin/DMSO,4.51
same,guanosine log2 (Erastin/DMSO),2.173
same,hippurate Erastin/DMSO,1.005
same,hippurate log2 (Erastin/DMSO),0.007657
same,histamine Erastin/DMSO,0.9526
same,histamine log2 (Erastin/DMSO),−0.07002
same,histidine Erastin/DMSO,0.9779
same,histidine log2 (Erastin/DMSO),−0.03228
same,hydroxyphenylacetate Erastin/DMSO,1.024
same,hydroxyphenylacetate log2 (Erastin/DMSO),0.03431
same,hypoxanthine Erastin/DMSO,0.9819
same,hypoxanthine log2 (Erastin/DMSO),−0.02629
same,indoxylsulfate Erastin/DMSO,0.7913
same,indoxylsulfate log2 (Erastin/DMSO),−0.3377
same,inosine Erastin/DMSO,1.867
same,inosine log2 (Erastin/DMSO),0.9005
same,isocitrate Erastin/DMSO,1.051
same,isocitrate log2 (Erastin/DMSO),0.07189
same,isoleucine Erastin/DMSO,0.9526
same,isoleucine log2 (Erastin/DMSO),−0.07
same,isomer_of_erythrose-4-phosphate Erastin/DMSO,0.5887
same,isomer_of_erythrose-4-phosphate log2 (Erastin/DMSO),−0.7644
same,kynurenic acid Erastin/DMSO,0.8322
same,kynurenic acid log2 (Erastin/DMSO),−0.265
same,kynurenine Erastin/DMSO,1.04
same,kynurenine log2 (Erastin/DMSO),0.05699
same,lactate Erastin/DMSO,0.884
same,lactate log2 (Erastin/DMSO),−0.1779
same,leucine Erastin/DMSO,0.9497
same,leucine log2 (Erastin/DMSO),−0.07444
same,lysine Erastin/DMSO,0.9654
same,lysine log2 (Erastin/DMSO),−0.05081
same,malate Erastin/DMSO,1.143
same,malate log2 (Erastin/DMSO),0.1934
same,maleate/3-methyl-2-oxobutanoate Erastin/DMSO,0.9484
same,maleate/3-methyl-2-oxobutanoate log2 (Erastin/DMSO),−0.07647
same,malonate Erastin/DMSO,1.025
same,malonate log2 (Erastin/DMSO),0.03595
same,methionine Erastin/DMSO,0.9702
same,methionine log2 (Erastin/DMSO),−0.04361
same,niacinamide Erastin/DMSO,0.9289
same,niacinamide log2 (Erastin/DMSO),−0.1065
same,nicotinate Erastin/DMSO,1.085
same,nicotinate log2 (Erastin/DMSO),0.1179
same,ornithine Erastin/DMSO,0.9482
same,ornithine log2 (Erastin/DMSO),−0.07676
same,orotate Erastin/DMSO,1.138
same,orotate log2 (Erastin/DMSO),0.1864
same,oxalate Erastin/DMSO,1.019
same,oxalate log2 (Erastin/DMSO),0.02659
same,pantothenate Erastin/DMSO,1.194
same,pantothenate log2 (Erastin/DMSO),0.2564
same,phenylacetylglycine Erastin/DMSO,1.135
same,phenylacetylglycine log2 (Erastin/DMSO),0.1828
same,phenylalanine Erastin/DMSO,1.005
same,phenylalanine log2 (Erastin/DMSO),0.007013
same,phosphocholine Erastin/DMSO,0.5252
same,phosphocholine log2 (Erastin/DMSO),−0.9291
same,phosphocreatine Erastin/DMSO,1.173
same,phosphocreatine log2 (Erastin/DMSO),0.2302
same,phosphoglycerate Erastin/DMSO,0.9848
same,phosphoglycerate log2 (Erastin/DMSO),−0.02206
same,phosphotyrosine Erastin/DMSO,0.6533
same,phosphotyrosine log2 (Erastin/DMSO),−0.6143
same,pimelate/3-methyladipate Erastin/DMSO,1.021
same,pimelate/3-methyladipate log2 (Erastin/DMSO),0.03006
same,proline Erastin/DMSO,1.086
same,proline log2 (Erastin/DMSO),0.1195
same,proprionate Erastin/DMSO,1.092
same,proprionate log2 (Erastin/DMSO),0.1269
same,pyruvate Erastin/DMSO,1.283
same,pyruvate log2 (Erastin/DMSO),0.3592
same,quinolinate Erastin/DMSO,1.015
same,quinolinate log2 (Erastin/DMSO),0.02178
same,ribose-5-P Erastin/DMSO,1.113
same,ribose-5-P log2 (Erastin/DMSO),0.155
same,ribulose-5-P Erastin/DMSO,1.051
same,ribulose-5-P log2 (Erastin/DMSO),0.07112
same,salicylurate Erastin/DMSO,0.9637
same,salicylurate log2 (Erastin/DMSO),−0.05339
same,sebacate Erastin/DMSO,0.9419
same,sebacate log2 (Erastin/DMSO),−0.08641
same,serine Erastin/DMSO,1.053
same,serine log2 (Erastin/DMSO),0.07514
same,serotonin Erastin/DMSO,0.7924
same,serotonin log2 (Erastin/DMSO),−0.3357
same,sorbitol Erastin/DMSO,0.9709
same,sorbitol log2 (Erastin/DMSO),−0.04258
same,suberate Erastin/DMSO,1.003
same,suberate log2 (Erastin/DMSO),0.004641
same,succinate/methylmalonate Erastin/DMSO,1.008
same,succinate/methylmalonate log2 (Erastin/DMSO),0.01178
same,sucrose Erastin/DMSO,1.408
same,sucrose log2 (Erastin/DMSO),0.4939
same,taurine Erastin/DMSO,0.8259
same,taurine log2 (Erastin/DMSO),−0.276
same,taurochenodeoxycholate Erastin/DMSO,1.181
same,taurochenodeoxycholate log2 (Erastin/DMSO),0.2399
same,taurocholate Erastin/DMSO,1.108
same,taurocholate log2 (Erastin/DMSO),0.1484
same,taurodeoxycholate Erastin/DMSO,1.168
same,taurodeoxycholate log2 (Erastin/DMSO),0.2237
same,taurolithocholate Erastin/DMSO,1.093
same,taurolithocholate log2 (Erastin/DMSO),0.1287
same,thiamine Erastin/DMSO,0.9385
same,thiamine log2 (Erastin/DMSO),−0.09157
same,threonine Erastin/DMSO,0.9924
same,threonine log2 (Erastin/DMSO),−0.01095
same,thymidine Erastin/DMSO,1.402
same,thymidine log2 (Erastin/DMSO),0.4879
same,thymine Erastin/DMSO,1.257
same,thymine log2 (Erastin/DMSO),0.3302
same,thyroxine Erastin/DMSO,0.8859
same,thyroxine log2 (Erastin/DMSO),−0.1748
same,triiodothyronine Erastin/DMSO,0.8066
same,triiodothyronine log2 (Erastin/DMSO),−0.31
same,trimethylamine-N-oxide Erastin/DMSO,1.222
same,trimethylamine-N-oxide log2 (Erastin/DMSO),0.2895
same,tryptophan Erastin/DMSO,0.9911
same,tryptophan log2 (Erastin/DMSO),−0.01285
same,tyrosine Erastin/DMSO,0.9821
same,tyrosine log2 (Erastin/DMSO),−0.02607
same,urate Erastin/DMSO,1.018
same,urate log2 (Erastin/DMSO),0.0257
same,uridine Erastin/DMSO,4.369
same,uridine log2 (Erastin/DMSO),2.127
same,valine Erastin/DMSO,0.9822
same,valine log2 (Erastin/DMSO),−0.02594
same,xanthine Erastin/DMSO,1.027
same,xanthine log2 (Erastin/DMSO),0.03817
same,xanthosine Erastin/DMSO,0.98
same,xanthosine log2 (Erastin/DMSO),−0.02909
